Laboratory results published in ChEMBL document CHEMBL1208688, “Synthesis and biological evaluation of novel benzodioxinocarbazoles (BDCZs) as potential anticancer agents” (Bioorg Med Chem Lett, 2010).
Activity calls are given as the source filed them. The rule behind the calls is not given here.

Legend:
[1] = molecular target: DNA topoisomerase 2-alpha (Homo sapiens) (UniProt P11388); test: Inhibition of topoisomerase 2
[2] = molecular target: T1, DNA topoisomerase 1 (Homo sapiens) (UniProt P11387); test: Inhibition of topoisomerase 1
T1 sequence (whole entry): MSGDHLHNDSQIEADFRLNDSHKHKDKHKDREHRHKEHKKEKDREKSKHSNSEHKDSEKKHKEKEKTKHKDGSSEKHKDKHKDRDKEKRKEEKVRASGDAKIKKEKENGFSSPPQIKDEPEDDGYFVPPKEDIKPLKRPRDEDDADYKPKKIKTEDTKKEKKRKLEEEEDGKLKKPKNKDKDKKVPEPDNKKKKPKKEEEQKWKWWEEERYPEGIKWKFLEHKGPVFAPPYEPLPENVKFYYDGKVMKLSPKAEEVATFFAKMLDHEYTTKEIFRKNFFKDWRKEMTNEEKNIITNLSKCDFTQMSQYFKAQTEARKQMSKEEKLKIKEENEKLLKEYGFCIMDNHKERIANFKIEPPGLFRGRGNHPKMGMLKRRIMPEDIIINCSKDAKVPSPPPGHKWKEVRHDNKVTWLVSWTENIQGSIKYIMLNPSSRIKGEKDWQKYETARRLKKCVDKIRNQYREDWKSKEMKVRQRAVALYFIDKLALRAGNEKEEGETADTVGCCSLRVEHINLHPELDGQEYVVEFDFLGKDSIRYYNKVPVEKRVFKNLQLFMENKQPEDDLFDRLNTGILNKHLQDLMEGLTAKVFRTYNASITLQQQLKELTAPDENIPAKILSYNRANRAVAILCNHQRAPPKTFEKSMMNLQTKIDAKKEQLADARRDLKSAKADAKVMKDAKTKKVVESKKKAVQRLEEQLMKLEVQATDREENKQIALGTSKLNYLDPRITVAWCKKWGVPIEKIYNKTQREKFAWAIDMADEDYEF

Chain of DNA topoisomerase 2-alpha (Homo sapiens) (P11388 whole entry): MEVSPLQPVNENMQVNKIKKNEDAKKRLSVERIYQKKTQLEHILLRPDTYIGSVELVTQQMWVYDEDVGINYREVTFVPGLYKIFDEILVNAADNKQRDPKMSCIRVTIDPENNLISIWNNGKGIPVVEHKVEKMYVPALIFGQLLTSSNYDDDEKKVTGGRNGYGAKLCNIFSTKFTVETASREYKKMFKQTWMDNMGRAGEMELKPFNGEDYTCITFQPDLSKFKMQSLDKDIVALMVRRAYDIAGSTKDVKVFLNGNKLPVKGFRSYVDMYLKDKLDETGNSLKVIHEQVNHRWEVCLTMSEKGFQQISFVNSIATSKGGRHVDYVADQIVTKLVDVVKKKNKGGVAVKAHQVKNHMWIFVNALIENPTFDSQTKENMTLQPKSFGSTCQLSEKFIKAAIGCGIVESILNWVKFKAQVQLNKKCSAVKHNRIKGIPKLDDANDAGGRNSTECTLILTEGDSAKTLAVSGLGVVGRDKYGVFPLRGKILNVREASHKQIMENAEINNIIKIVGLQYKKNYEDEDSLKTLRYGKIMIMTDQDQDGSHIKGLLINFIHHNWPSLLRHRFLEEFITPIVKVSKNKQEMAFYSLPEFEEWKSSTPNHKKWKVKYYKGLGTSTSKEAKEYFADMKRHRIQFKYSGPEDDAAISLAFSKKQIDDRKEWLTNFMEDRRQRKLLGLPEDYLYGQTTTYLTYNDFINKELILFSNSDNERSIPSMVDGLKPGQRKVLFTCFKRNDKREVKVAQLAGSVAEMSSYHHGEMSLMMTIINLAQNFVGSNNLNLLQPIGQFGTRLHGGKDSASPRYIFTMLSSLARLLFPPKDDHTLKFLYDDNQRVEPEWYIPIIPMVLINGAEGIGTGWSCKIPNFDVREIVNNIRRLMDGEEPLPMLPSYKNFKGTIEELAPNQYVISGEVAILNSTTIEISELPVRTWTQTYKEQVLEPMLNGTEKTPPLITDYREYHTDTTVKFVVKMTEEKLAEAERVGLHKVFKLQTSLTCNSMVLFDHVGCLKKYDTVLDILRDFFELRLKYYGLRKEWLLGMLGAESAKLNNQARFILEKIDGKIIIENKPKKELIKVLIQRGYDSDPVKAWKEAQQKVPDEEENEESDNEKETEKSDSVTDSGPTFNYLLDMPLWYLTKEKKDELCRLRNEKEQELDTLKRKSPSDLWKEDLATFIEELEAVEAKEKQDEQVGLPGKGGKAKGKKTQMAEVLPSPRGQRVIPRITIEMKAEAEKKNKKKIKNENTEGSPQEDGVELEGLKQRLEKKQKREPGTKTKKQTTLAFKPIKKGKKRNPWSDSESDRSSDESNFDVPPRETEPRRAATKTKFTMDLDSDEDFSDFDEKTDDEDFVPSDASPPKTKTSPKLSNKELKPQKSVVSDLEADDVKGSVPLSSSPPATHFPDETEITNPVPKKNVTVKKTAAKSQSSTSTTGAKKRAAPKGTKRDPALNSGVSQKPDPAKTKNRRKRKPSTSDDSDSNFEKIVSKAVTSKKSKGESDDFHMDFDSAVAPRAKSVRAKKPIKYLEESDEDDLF

inhibition [1]: inactive | inhibition [2]: inactive
SMILES: CN(C)CCn1c(=O)c2c3oc4ccccc4oc3c3[nH]c4ccc(O)cc4c3c2c1=O
